Measurements published in patent publication US20160108431A1, “PREVENTION AND TREATMENT OF ATRIAL FIBRILLATION” (ISIS INNOVATION LIMITED, priority 2013, published 2016).
Entries after “also recorded” stand apart in the source; their conditions may differ. Where a SMILES comes first, the peptide text is derived from it. The star is where a group is joined. Cbz = O=C(OCc1ccccc1)*

Tests used:
nNOS protein [1] = assay: nNOS protein in human atrial tissue in AF after inhibition of the proteosomal system or autophagy; format: cell-based; conditions: human RA, MG132 5 μmol/L, bafilomycin 25 nmol/L
Protocol: In the presence of AF, ubiquitination of nNOS protein is increased in human atrial tissue as shown by immunoprecipitation. Protein load of AF samples was increased to match the nNOS content to that seen in SR; n=6 (a). […] All abbreviations are as defined in FIG. 1.
In the skeletal muscle, nNOS protein stability is determined by the enzyme's anchoring to the dystrophin-syntrophin complex. We found a reduction in dystrophin (FIG. 4c, 4d, 4f) and dystrophin-associated proteins (e.g., caveolin-3 and α1-syntrophin, 4c, 4e), and a disruption of the dystrophin-nNOS complex in AF (FIG. 4a, 4b). In humans, atrial nNOS and dystrophin were strongly correlated (FIG. 4g), in keeping with the notion that disruption of the dystrophin-syntrophin complex promotes ubiquitin-dependent nNOS degradation in AF.

human RA myocytes = assay: Action potential duration (APD) and APD rate adaptation in isolated human right atrial myocytes; format: cell-based
Excerpt: All abbreviations are as defined in FIG. 1.
9b. […] Representative AP traces in RA myocytes from patients in SR exposed to 2 doses of 4-AP in the presence or absence of nNOS inhibition with SMTC.
A shorter APD leads to reduced atrial refractoriness and promote AF sustainability. […] These findings indicate that loss of myocardial nNOS signalling is sufficient to produce an atrial electrical substrate that increases both the inducibility and maintenance of AF.

nNOS mRNA [2] = assay: nNOS mRNA (gene expression) in transfected human atrial myocytes; format: cell-based
Excerpt: (§1) By contrast, treatment with miR31 mimic has no effect on the DYS mRNA in either SR (n=12) or AF (n=10). *P<0.05, **P<0.01 ***P<0.001 vs controls in SR and #P<0.05, ##P[…], ###P<0.001 vs negative control (NC) using 1-way ANOVA with Bonferroni correction. Dystrophin and nNOS gene expression were normalized to GAPDH.
(§2) 12g-m. […] By contrast, miR31 mimic has no effect on the decay of the DYS mRNA (h).

DYS mRNA [3] = assay: DYS mRNA (gene expression) in transfected human atrial myocytes; format: cell-based; conditions: for DYS mRNA (expression): SR myocytes, mimic 10 nM, 72 hours (FIG. 10)
Excerpt: as §1, §2

nNOS protein [4] = assay: nNOS protein content (immunoblot) in transfected human atrial myocytes; format: cell-based
Excerpt: (§3) RQ—relative quantification, DYS—dystrophin; all other abbreviations are as defined in FIG. 1.
as §1, §2

dystrophin (DYS) protein = assay: Dystrophin protein content (immunoblot) in transfected human atrial myocytes; format: cell-based
[5] = tested on: nNOS mRNA on the RISC complex; assay: Ribonucleoprotein immunoprecipitation with Ago2 (RISC), nNOS mRNA; format: cell-based, human; conditions: RA myocytes from AF patients; TSB 20 nM, 48-72 hours; normalized to miR31 in RISC
Protocol: 12a-b. (a) Immunoprecipitation of the RNA-induced silencing effector complex (RISC) protein, Argonaut 2 (Ago2) in RAA myocytes isolated from patients with AF transiently (48-72 hours) transfected with 20 nM of an locked nucleic acids (LNA)-based miR31 target site blocker (TSB, Exiqon) or with corresponding scrambled control (scr, 20 nM, Exiqon). Further details on the sequence of the TSB and scr control, also see FIG. 13). Molecular weight is shown in kilodalton (kDa); Rb IgG—rabbit immunoglobulin G (as negative control); IP—immunoprecipitation, IB—immunoblotting. (b) miR31 expression is unchanged in Ago2 immunoprecipitates from RAA human myocytes.
12c-f. (c) Sequence of the mature human miR31 (hsa-miR31), 23-nucleotide region of the human DYS-3′UTR, the miR31 hairpin inhibitor (anti-miR31, miRIDIAN, Dharmacon) and the 18-nucleotide-long locked nucleic acids (LNA)-based Target Site Blocker (TSB) covering the miR31-binding site on the DYS-3′UTR (TSB_DYS). (d) Sequences of the mature hsa-miR-31, 23-nucleotide region of the human nNOS-3′UTR, the anti-miR31 (miRIDIAN, Dharmacon) and the 18-nucleotide-long TSB covering the miR31-binding site on the nNOS 3′UTR (TSB_nNOS). The miR-31 seed sequence is in grey. […]
(§4) The corresponding mRNA stability was assessed in the presence of a miR-31 mimic (10 nM) in SR myocytes treated with the transcription inhibitor, actinomycin D (5 μg/ml).

nNOS mRNA [6] = assay: nNOS mRNA stability in the presence of actinomycin D; format: cell-based, human; conditions: SR myocytes; actinomycin D 5 μg/ml; mimic 10 nM
Protocol: as §2, §4

human nNOS 3′UTR = assay: GFP reporter assay in HEK293 cells, nNOS 3′UTR constructs; format: cell-based; conditions: HEK293, co-transfected 48 hours, mimic 10 nM
Protocol: 11a. Predicted conserved (site 1) and poorly conserved (sites 2, 3, 4 and 5) miR31-5p binding sites on the human nNOS 3′UTR.
11b. HEK293 cells were co-transfected (48 hours) with reporter constructs containing 2 fragments (˜500 bp) of the nNOS 3′UTR region containing the mir31 binding putative sites (Part1, site 1 & 2 and Part2, sites 3, 4 & 5) and a miR31 mimic (10 nM, miRIDIAN, Dharmacon). […] Further analysis of Part 2, identified site 5 as the functional mir31 site on the nNOS 3′ UTR.

miR-31 = miR-31 expression in transfected isolated human atrial myocytes; format: cell-based; conditions: for miR31 levels: RAA myocytes; for miR-31 expression: 20 nM, 48-72 hours
Excerpt: as §3
8a. […] Data are expressed as fold change to the controls in SR.
as §1
We hypothesised that a microRNA-mediated translational repression of dystrophin in AF may account for the loss of myocardial nNOS and constitute a novel mechanism underlying AF-induced electrical remodelling.

DYS mRNA [7] = assay: DYS mRNA stability in the presence of actinomycin D; format: cell-based, human; conditions: SR myocytes; actinomycin D 5 μg/ml; mimic 10 nM; listed as miR31 mimic
Protocol: as §2, §4

DYS 3′UTR = assay: GFP reporter assay in HEK293 cells, DYS 3′UTR construct; format: cell-based, human; conditions: HEK293, co-transfected 48 hours
Protocol: 11c. HEK293 cells were co-transfected (48 hours) with reporter constructs containing the DYS 3′UTR region containing the mir31 binding putative site. […] Reporter assays were performed in triplicates and are representative of at least 3 independent experiments. ###P<0.001 vs vehicle, repeated-measure ANOVA with Bonferroni correction.

[8] = myocytes from patients with AF, 20 nM, 48-72 hours
[9] = myocytes from patients with AF, 20 nM, 48-72 hours, listed as nNOS-TSB
[10] = SR myocytes, mimic 10 nM, 72 hours (FIG. 10), listed as miR31 mimic
[11] = SR myocytes, mimic 10 nM, 72 hours (FIG. 10), listed as miRIDIAN miR-31 mimic
[12] = myocytes from patients in SR, 20 nM, 48-72 hours
[13] = SR myocytes, mimic 10 nM, 72 hours

CC(C)C[C@@H](C=O)NC(=O)[C@H](CC(C)C)NC(=O)[C@H](CC(C)C)NC(=O)OCc1ccccc1 [MG132] (Cbz-Leu-Leu-Leu-aldehyde)
nNOS protein content (nNOS protein [1]): partially restores nNOS protein; also recorded: partially restored nNOS content

CO/C1=C\C(C)=C\[C@@H](C)[C@@H](O)[C@@H](C)C/C(C)=C/C=C/[C@H](OC)[C@@H]([C@@H](C)[C@@H](O)[C@H](C)[C@@]2(O)C[C@@H](O)[C@H](C)[C@@H](C(C)C)O2)OC1=O [bafilomycin A1]
nNOS protein content (nNOS protein [1]; listed as bafilomycin): had no effect

Nc1ccncc1 [4-AP]
APD (human RA myocytes; RA myocytes from patients in SR, 2 doses of 4-AP (100 and 500)): prolong APD
difference in APD induced by SMTC (human RA myocytes; RA myocytes from patients in SR, 4-AP 100 and 500, with or without SMTC): abolish the difference in APD induced by SMTC
APD rate dependent adaptation (human RA myocytes; human RA myocytes, 4-AP): restores the APD rate dependent adaptation

TSB_nNOS: 18-nucleotide-long TSB covering the miR31-binding site on the nNOS 3′UTR (LNA-based, Exiqon) (DNA TGGCAAGAATGAAAAGGC; LNA-based target site blocker, LNA pattern not given here)
nNOS mRNA (gene expression) (nNOS mRNA [2]; [8]): increased nNOS mRNA
nNOS mRNA (gene expression) (nNOS mRNA [2]; [9]): significantly increased
DYS mRNA (DYS mRNA [3]; [8]): without affecting
nNOS protein content (nNOS protein [4]; [8]): partially recovered nNOS protein
nNOS protein content (nNOS protein [4]; [9]): recovered nNOS
dystrophin (DYS) protein content (dystrophin (DYS) protein; [8]): without affecting
loading of nNOS mRNA on the RISC complex (Ago2 immunoprecipitation) [5]: selectively prevented loading; also recorded: reduction

miR-31 mimic: miRIDIAN miR-31 mimic (Dharmacon) (AGGCAAGATGCTGGCATAGCT; listed as DNA, chemistry not given here)
nNOS gene expression (nNOS mRNA [2]; AF myocytes, mimic (FIG. 10)): reduces
nNOS mRNA (gene expression) (nNOS mRNA [2]; [10]): reduces
nNOS mRNA (gene expression) (nNOS mRNA [2]; [11]): reduced
decay of nNOS mRNA (nNOS mRNA [6]): accelerated the decay of nNOS mRNA
DYS mRNA (DYS mRNA [3]; AF myocytes, mimic (FIG. 10)): has no effect
DYS mRNA (expression) (DYS mRNA [3]; listed as miR31 mimic): has no effect
DYS mRNA (expression) (DYS mRNA [3]; listed as miRIDIAN miR-31 mimic): without affecting
nNOS protein (nNOS protein [4]; AF myocytes, mimic (FIG. 10)): reduces
nNOS protein content (nNOS protein [4]; [10]): reduces
nNOS protein content (nNOS protein [4]; [11]): reduced
nNOS protein content (nNOS protein [4]; [12]): dramatically reduced
nNOS protein content (nNOS protein [4]; [8]): dramatically reduced
GFP fluorescence, wild type (WT) Part 2 nNOS 3′UTR construct (human nNOS 3′UTR): reduction in miR31-mediated GFP fluorescence
reduction in GFP fluorescence, mutated (Mut) nNOS 3′UTR constructs lacking miR31 binding site (human nNOS 3′UTR): abolished
dystrophin protein (dystrophin (DYS) protein; AF myocytes, mimic (FIG. 10)): reduces
dystrophin (DYS) protein content (dystrophin (DYS) protein; [10]): reduces
dystrophin (DYS) protein content (dystrophin (DYS) protein; [11]): reduced
dystrophin (DYS) protein content (dystrophin (DYS) protein; [12]): dramatically reduced
dystrophin (DYS) protein content (dystrophin (DYS) protein; [8]): dramatically reduced
miR31 levels (miR-31; AF, mimic (FIG. 10)): increases mir31 levels
miR31 levels (miR-31; SR, mimic 10 nM, 72 hours (FIG. 10)): increases mir31 levels
miR-31 expression (miR-31; myocytes from patients in SR): upregulation of miR-31
miR-31 expression (miR-31; myocytes from patients with AF): upregulation of miR-31
decay of DYS mRNA (DYS mRNA [7]): has no effect
APD (human RA myocytes; [13]): shortened APD
APD rate-dependent adaptation (human RA myocytes; [13]): abolished the APD rate-dependent adaptation
GFP fluorescence, wild type (WT) DYS 3′UTR construct (DYS 3′UTR): reduction in miR31-mediated GFP fluorescence
reduction in GFP fluorescence, mutated (Mut) DYS 3′UTR constructs lacking miR31 binding site (DYS 3′UTR): abolished
